# Assay results from the supplement of paper PMC10307832.
# Key:
# Experiment in all cases: relative viability (nuclei count vs DMSO), 5 days (fraction); higher = more cells survive
# [1] = compound: C1COCCN1C2=NC(=NC3=C2OC4=C3C=CC=N4)C5=CC(=CC=C5)NC(=O)C6=CN=C(C=C6)N + CC(C)C[C@H](NC(=O)[C@H](Cc1ccccc1)NC(=O)c1cnccn1)B(O)O [Bortezomib] (partner 0.002 µM)
# Outline: (§1)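 Values are medians from duplicate plates. Each reflects relative viability, defined as the nuclei count of treated wells over that of vehicle wells. Lung cancer cell lines in 1536-well plates were pin-tool dosed one day after seeding with one drug alone or with a fixed anchor-drug dose plus five library-drug doses (not always all listed) in √10 steps, then fixed, stained and imaged at 4× after 5 days.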
# [2] = compound: Nc1ccccc1NC(=O)c1ccc(CNC(=O)OCc2cccnc2)cc1 [Entinostat] + CC(=O)Nc1cccc(-n2c(=O)n(C3CC3)c(=O)c3c(Nc4ccc(I)cc4F)n(C)c(=O)c(C)c32)c1 [Trametinib] (partner 0.02 µM)
# Outline: as §1
# [3] = compound: C1COCCN1C2=NC(=NC3=C2OC4=C3C=CC=N4)C5=CC(=CC=C5)NC(=O)C6=CN=C(C=C6)N + CS(=O)(=O)N1CCN(Cc2cc3nc(-c4cccc5[nH]ncc45)nc(N4CCOCC4)c3s2)CC1 [Pictilisib] (partner 1 µM)
# Outline: as §1
# [4] = compound: C1COCCN1C2=NC(=NC3=C2OC4=C3C=CC=N4)C5=CC(=CC=C5)NC(=O)C6=CN=C(C=C6)N + CCNC(=O)c1noc(-c2cc(C(C)C)c(O)cc2O)c1-c1ccc(CN2CCOCC2)cc1 [Luminespib] (partner 0.01 µM)
# Outline: as §1
Cell Line,relative viability ([1]; first compound 0.02 µM),relative viability ([1]; first compound 0.06325 µM),relative viability ([1]; first compound 0.2 µM),relative viability ([1]; first compound 0.6325 µM),relative viability ([1]; first compound 2 µM),relative viability ([2]; first compound 0.02 µM),relative viability ([2]; first compound 0.06325 µM),relative viability ([2]; first compound 0.2 µM),relative viability ([2]; first compound 0.6325 µM),relative viability ([2]; first compound 2 µM),relative viability ([3]; first compound 0.02 µM),relative viability ([3]; first compound 0.06325 µM),relative viability ([3]; first compound 0.2 µM),relative viability ([3]; first compound 0.6325 µM),relative viability ([3]; first compound 2 µM),relative viability ([4]; first compound 0.02 µM),relative viability ([4]; first compound 0.06325 µM),relative viability ([4]; first compound 0.2 µM),relative viability ([4]; first compound 0.6325 µM),relative viability ([4]; first compound 2 µM)
201T,0.994,1.1,1.02,1.11,0.97,0.746,0.72,0.684,0.716,0.545,0.661,0.66,0.654,0.735,0.696,1.13,1,1.05,0.985,0.827
NCI-H2023,0.995,1.13,0.914,0.75,0.48,0.467,0.473,0.226,0.127,0.0998,0.273,0.211,0.216,0.23,0.193,0.793,0.38,0.477,0.507,0.245
NCI-H23,1.15,1.44,1.15,0.899,0.446,0.411,0.475,0.483,0.394,0.215,0.473,0.504,0.409,0.432,0.32,0.185,0.203,0.191,0.208,0.212
LXF-289,1.1,1.11,0.996,0.997,0.409,0.642,0.653,0.652,0.408,0.453,0.782,0.861,0.703,0.758,0.602,0.598,0.798,0.783,0.494,0.321
EKVX,1.09,1.19,1.02,1.11,0.585,0.364,0.344,0.261,0.252,0.227,0.408,0.408,0.44,0.379,0.439,0.885,0.859,0.723,0.755,0.664
LC-2-ad,1.09,1.05,0.998,1.03,0.898,0.894,0.883,0.83,0.698,0.479,0.441,0.51,0.526,0.443,0.487,0.857,1.08,1.02,1.06,0.872
NCI-H596,0.9,1.21,0.963,1,0.684,0.748,0.638,0.807,0.649,0.459,0.356,0.386,0.374,0.315,0.407,0.985,1.04,0.968,0.992,0.408
NCI-H1734,1.15,1.02,0.835,0.801,0.462,0.707,0.711,0.759,0.6,0.477,0.466,0.494,0.429,0.443,0.355,0.169,0.197,0.204,0.182,0.156
LOU-NH91,0.511,0.474,0.481,0.489,0.461,0.777,0.771,0.804,0.739,0.674,0.48,0.531,0.51,0.521,0.512,0.309,0.389,0.346,0.315,0.306
NCI-H322M,1.2,1.25,1.25,1.24,0.965,0.546,0.534,0.542,0.525,0.502,0.508,0.542,0.474,0.585,0.484,0.988,0.981,0.742,0.735,0.484
PC-3 [JPC-3],0.799,0.748,0.844,0.845,0.634,0.726,0.642,0.579,0.51,0.502,0.754,0.831,0.739,0.798,0.629,0.704,0.675,0.754,0.675,0.613
EPLC-272H,0.965,0.994,0.816,0.931,0.558,0.351,0.342,0.319,0.27,0.182,0.292,0.297,0.264,0.308,0.288,0.242,0.588,0.401,0.271,0.33
A-427,0.981,1.02,0.945,0.91,0.652,0.882,0.921,0.866,0.639,0.523,0.696,0.621,0.675,0.653,0.507,0.812,0.951,0.982,0.872,0.544
